For one assay, the target named is T1, ovine COX-1 (Ovis aries, UniProt P05979).
T1 construct: purchased Cayman Chemical 560131
T1 sequence (P05979 25-600): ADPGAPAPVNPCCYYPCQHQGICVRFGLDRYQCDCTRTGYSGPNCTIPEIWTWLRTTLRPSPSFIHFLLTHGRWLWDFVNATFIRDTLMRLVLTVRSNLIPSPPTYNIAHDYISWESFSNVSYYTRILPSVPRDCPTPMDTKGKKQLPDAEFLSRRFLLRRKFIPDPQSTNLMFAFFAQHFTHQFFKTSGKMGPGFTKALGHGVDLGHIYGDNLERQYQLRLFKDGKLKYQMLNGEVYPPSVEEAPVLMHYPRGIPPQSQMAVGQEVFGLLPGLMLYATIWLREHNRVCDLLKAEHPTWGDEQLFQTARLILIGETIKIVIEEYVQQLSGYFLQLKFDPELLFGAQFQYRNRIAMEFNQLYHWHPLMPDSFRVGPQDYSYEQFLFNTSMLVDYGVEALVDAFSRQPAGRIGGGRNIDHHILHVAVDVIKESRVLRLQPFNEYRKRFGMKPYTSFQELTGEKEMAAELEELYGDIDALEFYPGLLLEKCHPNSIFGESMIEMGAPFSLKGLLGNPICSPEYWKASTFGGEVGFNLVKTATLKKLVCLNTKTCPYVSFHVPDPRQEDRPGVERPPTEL
Nature of the assay: biochemical. The assay is classed as biochemical. The settings on record: EIA, sigmoidal concentration-inhibition curves, concentrations 0.03 μM to 300 µM. On the procedure: (§1) The COX-1/2 inhibitory activities of the tested compounds were evaluated using the enzyme immunoassay (EIA) method against ovine COX-1 and human recombinant COX-2. The selectivity index was calculated as the ratio IC50 COX-1/IC50 COX-2.
(§2) The kit utilizes an enzyme immunoassay (EIA) in order to quantify the prostanoid product resulted from COX catalyzed reaction. The inhibitory potential of our molecules was tested against the ovine COX-1 and human recombinant COX-2 enzymes. The COX inhibition reaction was performed by a 10 min incubation at 37 °C in the presence of reaction buffer, heme, COX-1 or COX-2 enzymes, and the tested inhibitor. The reaction was initiated by adding arachidonic acid and incubating at 37 °C for 2 min. Enzymatic catalysis was stopped by adding HCl. Stannous chloride was subsequently added to perform the reduction of COX-derived prostaglandin H2 (PGH2) produced in the reaction of COX leading to prostaglandin F2α (PGF2α). PGF2α was then quantified using the EIA kit. Prostanoid containing solutions obtained from the COX reaction were then diluted and transferred to plates that were pre-coated with monoclonal anti-rabbit IgG antibodies produced in mouse. They were incubated overnight in the presence of PG-acetylcholinesterase (AchE) conjugate and specific PG antiserum. The reaction mixture was then removed from the wells, the plates were washed to remove all unbound reagents and Ellman’s reagent (which contains the AchE substrate) was then added for plate development. […] The intensity of the color is inversely proportional to the amount of PG found in the sample. The PG quantity was determined using a PG standard curve generated on the same plate. All determinations were performed according to the manufacturer’s instructions and similar with other literature reports. The IC50 values were calculated using a sigmoidal concentration-inhibition response curve (duplicate determinations). Every compound was assayed in the COX reaction on a range of concentrations from 0.03 μM to 300 µM in two distinct determinations. Each COX reaction sample was then EIA assayed at two dilutions and each dilution was tested in duplicate. […] Using IC50 values, the selectivity index (SI) was calculated as the ratio IC50COX-1/IC50COX-2.

In a further assay the target is T2, human recombinant COX-2 (Homo sapiens, UniProt P35354).
T2 construct: purchased Cayman Chemical 560131
T2 sequence (P35354 18-604): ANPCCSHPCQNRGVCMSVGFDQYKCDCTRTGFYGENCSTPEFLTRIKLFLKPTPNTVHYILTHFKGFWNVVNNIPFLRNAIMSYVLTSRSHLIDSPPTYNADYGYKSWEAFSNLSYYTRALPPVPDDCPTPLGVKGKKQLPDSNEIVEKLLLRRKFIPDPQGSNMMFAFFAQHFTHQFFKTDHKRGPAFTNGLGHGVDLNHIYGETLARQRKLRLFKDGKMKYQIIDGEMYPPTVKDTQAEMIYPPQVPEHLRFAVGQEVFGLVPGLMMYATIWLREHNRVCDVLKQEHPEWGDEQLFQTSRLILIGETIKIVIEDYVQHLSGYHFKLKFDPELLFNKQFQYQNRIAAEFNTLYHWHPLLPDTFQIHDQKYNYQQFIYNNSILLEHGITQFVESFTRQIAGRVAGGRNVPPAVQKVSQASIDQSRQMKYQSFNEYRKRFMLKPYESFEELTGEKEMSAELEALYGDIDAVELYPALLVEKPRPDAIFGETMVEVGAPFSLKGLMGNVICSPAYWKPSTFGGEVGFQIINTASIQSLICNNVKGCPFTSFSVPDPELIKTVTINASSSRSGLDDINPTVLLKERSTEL
Nature of the assay: biochemical. It is filed as biochemical. The settings on record: for Selectivity index SI = IC50 COX-1/IC50 COX-2: ratio of ovine COX-1 to human recombinant COX-2 IC50. The procedure: as §1, §2

On the set-up of assay [1]: method as in earlier work. The settings on record: induced acute inflammation experimental model; cited from earlier work.
[2] abbreviates: human recombinant COX-2, EIA, sigmoidal concentration-inhibition curves, concentrations 0.03 μM to 300 µM.

“And” between values parts separate entries of the source, which are not always exact repeats. Identical values can stand only once.

What is called IC50 is the concentration at which inhibition is half-maximal. For the compound `COc1cc(-c2nc(-c3ccccc3)cs2)cc(OC)c1OC` [A2], on ovine COX-1, 34.5 µM corresponded to half-maximal inhibition (IC50) and the “IC50 COX-1” value was “potent”. The IC50 on human recombinant COX-2 (setting [2]) was 23.3 µM. Besides, the “Selectivity index SI = IC50 COX-1/IC50 COX-2” value on human recombinant COX-2 came to 1.48. In assay [1], the “in vivo anti-inflammatory effect” value was “lacked the in vivo effect”.

In the case of `COc1cc(-c2nc(-c3cccc4ccccc34)cs2)cc(OC)c1OC` [A6], the IC50 is 26.9 µM against ovine COX-1 and 28.9 µM at human recombinant COX-2 (setting [2]). Moreover, the “Selectivity index SI = IC50 COX-1/IC50 COX-2” value on human recombinant COX-2 came to 0.93.

As to `COc1cc(-c2nc(-c3sc(-c4ccccc4)nc3C)cs2)cc(OC)c1OC` [A9], the figures for the IC50 against ovine COX-1 and on human recombinant COX-2 (setting [2]) were 83.2 µM and 70.9 µM, respectively. Also, the “Selectivity index SI = IC50 COX-1/IC50 COX-2” value at human recombinant COX-2 came out at 1.17.

For `COc1ccc(-c2csc(-c3cc(OC)c(OC)c(OC)c3)n2)cc1` [A4], at ovine COX-1, the IC50 worked out at 50.4 µM and the “IC50 COX-1” value is on record as “potent”. In addition, on human recombinant COX-2 (setting [2]), the half-inhibitory concentration (IC50) worked out at 75 µM. The “Selectivity index SI = IC50 COX-1/IC50 COX-2” value on human recombinant COX-2 amounted to 0.67.

On to `COc1cc(-c2nc(-c3ccc(Cl)cc3)cs2)cc(OC)c1OC` [A8], for which, on ovine COX-1, the IC50 was determined as 31.5 µM and the “IC50 COX-1” value is “potent”. At human recombinant COX-2 (setting [2]), the IC50 was 25.6 µM. For the same compound, the “Selectivity index SI = IC50 COX-1/IC50 COX-2” value at human recombinant COX-2 worked out at 1.22. Also, in assay [1], the “in vivo anti-inflammatory effect” value is “efficient”.

Regarding `CCOC(=O)Cc1csc(-c2cc(OC)c(OC)c(OC)c2)n1` [A13], the results for the IC50 against ovine COX-1 and at human recombinant COX-2 (setting [2]) were 109 µM and 229 µM, respectively. For the same compound, the “Selectivity index SI = IC50 COX-1/IC50 COX-2” value on human recombinant COX-2 came out at 0.47.

In the case of `COc1cc(-c2nc(-c3ccc(C#N)cc3)cs2)cc(OC)c1OC` [A5], the results for the IC50 on ovine COX-1 and at human recombinant COX-2 (setting [2]) were 73.3 µM and 148 µM, respectively. Moreover, the “Selectivity index SI = IC50 COX-1/IC50 COX-2” value at human recombinant COX-2 came out at 0.49.

With `COc1cc(-c2nc(C)c(C(C)=O)s2)cc(OC)c1OC` [A11], the figures for the IC50 against ovine COX-1 and at human recombinant COX-2 (setting [2]) were 76 µM and 216 µM, respectively. In addition, the “Selectivity index SI = IC50 COX-1/IC50 COX-2” value on human recombinant COX-2 was determined as 0.35.

As to `CCOC(=O)c1sc(-c2cc(OC)c(OC)c(OC)c2)nc1C` [A12], the IC50 on human recombinant COX-2 (setting [2]) amounted to 273 µM. Besides, the “Selectivity index SI = IC50 COX-1/IC50 COX-2” value on human recombinant COX-2 is 1.5.

`COc1cc(-c2nc(-c3ccccc3)c(C)s2)cc(OC)c1OC` [A1] yielded an IC50 at ovine COX-1 of 140 µM. For the same compound, at human recombinant COX-2 (setting [2]), the IC50 was above 300 µM and the “IC50 COX-2” value is “practically inactive”.

As to `COc1cc(-c2nc(-c3ccc([N+](=O)[O-])cc3)cs2)cc(OC)c1OC` [A3], the IC50 against ovine COX-1 was 236 µM; on human recombinant COX-2 (setting [2]) it was 25.5 µM. For the same compound, at human recombinant COX-2, the “Selectivity index SI = IC50 COX-1/IC50 COX-2” value is 9.242 and 9.24. Also, the “in vivo anti-inflammatory effect” value in assay [1] was “efficient”.

For `COc1cc(-c2nc(-c3ccc(C(N)=O)c(O)c3)cs2)cc(OC)c1OC` [A7], the IC50 on ovine COX-1 is 54.7 µM; on human recombinant COX-2 (setting [2]) it was 106 µM. At ovine COX-1, the “IC50 COX-1” value is “potent”. Moreover, the “Selectivity index SI = IC50 COX-1/IC50 COX-2” value on human recombinant COX-2 is reported as 0.51.

For `COc1cc(-c2nc(CCl)cs2)cc(OC)c1OC` [A10], the IC50 at human recombinant COX-2 (setting [2]) stood at 107 µM. The “Selectivity index SI = IC50 COX-1/IC50 COX-2” value on human recombinant COX-2 was found to be 5.69.

Source of the values: paper PMC6151395, “COX Inhibition Profile and Molecular Docking Studies of Some 2-(Trimethoxyphenyl)-Thiazoles” (Molecules : A Journal of Synthetic Chemistry and Natural …, 2017).
